Reference: patent US7906507B2, “Oxadiazoanthracene compounds for the treatment of diabetes” (TransTech Pharma, Inc., priority 2008, dated 2011)

Target: T1, cloned human GLP-1 receptor (Homo sapiens, UniProt P43220)
T1 construct: expressed in transfected cells; host or cells: CHO or HEK-293 cells
Experiment: Functional cell-based assay: cAMP functional assay
Settings: for Emax: 0.5 h, percentage relative to maximal GLP-1-induced cAMP accumulation, na = not active in the assay, read-out: % activation
Protocol: Following overnight incubation of cells, media was removed, and compounds (at concentrations ranging from 0.0001 to 100 μM) were added to monolayer cells in Iscove's modified dulbecco's medium (IMDM), 100 μM RO 20-1724 PDE inhibitor, 0.1% BSA, 2% DMSO in a final volume of 100 μL, and incubated for 30 min at 37° C. 95% O2, 5% CO2 in a humidified incubator. cAMP was quantitated using a homogenous time-resolved fluorescence detection system (cAMP dynamic, CIS bio International).

T1 sequence (P43220 24-463): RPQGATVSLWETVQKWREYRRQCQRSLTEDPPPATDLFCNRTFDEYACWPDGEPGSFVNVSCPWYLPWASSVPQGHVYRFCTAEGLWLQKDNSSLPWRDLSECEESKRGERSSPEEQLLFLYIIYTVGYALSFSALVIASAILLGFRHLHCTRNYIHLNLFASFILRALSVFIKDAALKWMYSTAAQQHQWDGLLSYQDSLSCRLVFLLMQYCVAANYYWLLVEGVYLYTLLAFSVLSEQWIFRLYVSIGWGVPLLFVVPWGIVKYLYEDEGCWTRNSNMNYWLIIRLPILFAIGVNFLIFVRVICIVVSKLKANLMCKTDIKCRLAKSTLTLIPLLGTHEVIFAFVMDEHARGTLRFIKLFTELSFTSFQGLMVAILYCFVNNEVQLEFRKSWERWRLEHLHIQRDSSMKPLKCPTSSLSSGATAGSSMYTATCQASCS

Row | Compound | EC50 | Emax
1 | CC(c1ccccc1)N1Cc2cc3c(cc2C[C@H]1C(=O)N[C@@H](Cc1ccc(-c2ccc(C#N)cc2)cc1)C(=O)O)N(C)C(=O)C(c1ccc(OCc2ccc(Cl)c(Cl)c2)cc1)O3 (stereo partly drawn) [Example 80, (S)-3-(4′-Cyano-biphenyl-4-yl)-2-{[(S)-3-[4-(3,4-dichloro-benzyloxy)-phenyl]-1-methyl-2-oxo-6-(1-phenyl-ethyl)-2,3,5,6,7,8-hexahydro-1H-4-oxa-1,6-diaza-anthracene-7-carbonyl]-amino}-propionic acid] | 66 nM | 16%
2 | N#Cc1ccc(-c2ccc(C[C@H](NC(=O)[C@@H]3Cc4cc5c(cc4CN3S(=O)(=O)c3cccc([N+](=O)[O-])c3)OC(c3ccc(OCc4ccc(Cl)c(Cl)c4)cc3)C(=O)N5)C(=O)O)cc2)cc1 (stereo partly drawn) [Example 52, (S)-3-(4′-Cyano-biphenyl-4-yl)-2-{[(S)-3-[4-(3,4-dichloro-benzyloxy)-phenyl]-6-(3-nitro-benzenesulfonyl)-2-oxo-2,3,5,6,7,8-hexahydro-1H-4-oxa-1,6-diaza-anthracene-7-carbonyl]-amino}-propionic acid] | 810 nM | 33%
3 | CC[C@@H](c1ccccc1)N1Cc2cc3c(cc2C[C@H]1C(=O)N[C@@H](Cc1ccc(-c2ccc(OC)cc2)cc1)C(=O)O)N(C)C(=O)[C@H](c1ccc(OCc2ccc(Cl)c(Cl)c2)cc1)O3 [Example 94, (S)-2-{[(3S,7S)-3-[4-(3,4-Dichloro-benzyloxy)-phenyl]-1-methyl-2-oxo-6-((S)-1-phenyl-propyl)-2,3,5,6,7,8-hexahydro-1H-4-oxa-1,6-diaza-anthracene-7-carbonyl]-amino}-3-(4′-methoxy-biphenyl-4-yl)-propionic acid] | 424 nM | 41%
4 | N#Cc1ccc(-c2ccc(C[C@H](NC(=O)[C@@H]3Cc4cc5c(cc4CN3C(=O)c3cccs3)OC(c3ccc(OCc4cnc(Cl)c(Cl)c4)cc3)C(=O)N5)C(=O)O)cc2)cc1 (stereo partly drawn) [Example 66, (S)-3-(4′-Cyano-biphenyl-4-yl)-2-{[(S)-3-[4-(5,6-dichloro-pyridin-3-ylmethoxy)-phenyl]-2-oxo-6-(thiophene-2-carbonyl)-2,3,5,6,7,8-hexahydro-1H-4-oxa-1,6-diaza-anthracene-7-carbonyl]-amino}-propionic acid] | 950 nM | 21%
5 | N#Cc1ccc(-c2ccc(C[C@H](NC(=O)[C@@H]3Cc4cc5c(cc4CN3Cc3nccs3)OC(c3ccc(OCc4cccc(Cl)c4)cc3)C(=O)N5)C(=O)O)cc2)cc1 (stereo partly drawn) [Example 67, (S)-2-({(S)-3-[4-(3-Chloro-benzyloxy)-phenyl]-2-oxo-6-thiazol-2-ylmethyl-2,3,5,6,7,8-hexahydro-1H-4-oxa-1,6-diaza-anthracene-7-carbonyl}-amino)-3-(4′-cyano-biphenyl-4-yl)-propionic acid] | 1150 nM | 55%
6 | CC[C@@H](c1ccccc1)N1Cc2cc3c(cc2C[C@H]1C(=O)N[C@@](C)(Cc1ccc(-c2ccc(C#N)cc2)cc1)C(=O)O)N(C)C(=O)C(c1ccc(OCc2ccc(Cl)c(Cl)c2)cc1)O3 (stereo in doubt) [Example 97, (S)-3-(4′-Cyano-biphenyl-4-yl)-2-{[(S)-3-[4-(3,4-dichloro-benzyloxy)-phenyl]-1-methyl-2-oxo-6-((S)-1-phenyl-propyl)-2,3,5,6,7,8-hexahydro-1H-4-oxa-1,6-diaza-anthracene-7-carbonyl]-amino}-2-methyl-propionic acid] | 38.2 nM | 38%
7 | CN1C(=O)C(c2ccc(OCc3ccc(Cl)c(Cl)c3)cc2)Oc2cc3c(cc21)C[C@@H](C(=O)N[C@@H](Cc1ccc(-c2ccc(C#N)cc2)cc1)C(=O)O)N(C1CCCCC1)C3 (stereo partly drawn) [Example 75, (S)-3-(4′-Cyano-biphenyl-4-yl)-2-({(S)-6-cyclohexyl-3-[4-(3,4-dichloro-benzyloxy)-phenyl]-1-methyl-2-oxo-2,3,5,6,7,8-hexahydro-1H-4-oxa-1,6-diaza-anthracene-7-carbonyl}-amino)-propionic acid] | 244 nM | 20%
8 | CC(=O)Nc1nc(C)c(S(=O)(=O)N2Cc3cc4c(cc3C[C@H]2C(=O)N[C@@H](Cc2ccc(-c3ccc(C#N)cc3)cc2)C(=O)O)NC(=O)C(c2ccc(OCc3ccc(Cl)c(Cl)c3)cc2)O4)s1 (single isomer, unassigned) [Example 81] | 70 nM | 25%
9 | N#Cc1ccc(-c2ccc(C[C@H](NC(=O)[C@@H]3Cc4cc5c(cc4CN3C(=O)C3CCCCC3)OC(c3ccc(OCc4ccc(Cl)c(Cl)c4)cc3)C(=O)N5)C(=O)O)cc2)cc1 (stereo partly drawn) [Example 25, (S)-3-(4′-Cyano-biphenyl-4-yl)-2-({(S)-6-cyclohexanecarbonyl-3-[4-(3,4-dichloro-benzyloxy)-phenyl]-2-oxo-2,3,5,6,7,8-hexahydro-1H-4-oxa-1,6-diaza-anthracene-7-carbonyl}-amino)-propionic acid] | 594 nM | 12%

Further lines, results first:

Row | EC50 | Emax | Compound
10 | 450 nM | 77% | N#Cc1ccc(-c2ccc(C[C@H](NC(=O)[C@@H]3Cc4cc5c(cc4CN3S(=O)(=O)c3ccccc3)OC(c3ccc(OCc4ccc(Cl)c(Cl)c4)cc3)C(=O)N5)C(=O)O)cc2)cc1 (stereo partly drawn) [Example 14, (S)-2-({(S)-6-Benzenesulfonyl-3-[4-(3,4-dichloro-benzyloxy)-phenyl]-2-oxo-2,3,5,6,7,8-hexahydro-1H-4-oxa-1,6-diaza-anthracene-7-carbonyl}-amino)-3-(4′-cyano-biphenyl-4-yl)-propionic acid]
11 | 660 nM | 13% | N#Cc1ccc(-c2ccc(C[C@H](NC(=O)[C@@H]3Cc4cc5c(cc4CN3C(=O)c3c(F)cc(F)cc3F)OC(c3ccc(OCc4ccc(Cl)c(Cl)c4)cc3)C(=O)N5)C(=O)O)cc2)cc1 (stereo partly drawn) [Example 36, (S)-3-(4′-Cyano-biphenyl-4-yl)-2-{[(S)-3-[4-(3,4-dichloro-benzyloxy)-phenyl]-2-oxo-6-(2,4,6-trifluoro-benzoyl)-2,3,5,6,7,8-hexahydro-1H-4-oxa-1,6-diaza-anthracene-7-carbonyl]-amino}-propionic acid]
12 | 710 nM | 18% | O=C1Nc2cc3c(cc2OC1c1ccc(OCc2ccc(Cl)c(Cl)c2)cc1)CN(C(=O)c1ccccc1)[C@H](C(=O)N[C@@H](Cc1ccc(-c2ccncc2)cc1)C(=O)O)C3 (stereo partly drawn) [Example 83, (S)-2-({(S)-6-Benzoyl-3-[4-(3,4-dichloro-benzyloxy)-phenyl]-2-oxo-2,3,5,6,7,8-hexahydro-1H-4-oxa-1,6-diaza-anthracene-7-carbonyl}-amino)-3-(4-pyridin-4-yl-phenyl)-propionic acid]
13 | 570 nM | 20% | N#Cc1ccc(-c2ccc(C[C@H](NC(=O)[C@@H]3Cc4cc5c(cc4CN3C(=O)c3ccccc3)OC(c3ccc(OCc4c(Cl)cccc4Cl)cc3)C(=O)N5)C(=O)O)cc2)cc1 (stereo partly drawn) [Example 57, (S)-2-({(S)-6-Benzoyl-3-[4-(2,6-dichloro-benzyloxy)-phenyl]-2-oxo-2,3,5,6,7,8-hexahydro-1H-4-oxa-1,6-diaza-anthracene-7-carbonyl}-amino)-3-(4′-cyano-biphenyl-4-yl)-propionic acid]
14 | 920 nM | 43% | O=C1Nc2cc3c(cc2OC1c1ccc(OCc2ccc(Cl)c(Cl)c2)cc1)CN(C(=O)c1ccccc1)[C@H](C(=O)N[C@@H](Cc1ccc(-c2ccc(Cl)cc2)cc1)C(=O)O)C3 (stereo partly drawn) [Example 84, (S)-2-({(S)-6-Benzoyl-3-[4-(3,4-dichloro-benzyloxy)-phenyl]-2-oxo-2,3,5,6,7,8-hexahydro-1H-4-oxa-1,6-diaza-anthracene-7-carbonyl}-amino)-3-(4′-chloro-biphenyl-4-yl)-propionic acid]
15 | 290 nM | 17% | CC(C)(C)OC(=O)N1Cc2cc3c(cc2C[C@H]1C(=O)N[C@@H](Cc1ccc(-c2ccc(C#N)cc2)cc1)C(=O)O)NC(=O)C(c1ccc(OCc2ccc(Cl)c(Cl)c2)cc1)O3 (stereo partly drawn) [Example 29, (S)-7-[(S)-1-Carboxy-2-(4′-cyano-biphenyl-4-yl)-ethylcarbamoyl]-3-[4-(3,4-dichloro-benzyloxy)-phenyl]-2-oxo-1,2,3,5,7,8-hexahydro-4-oxa-1,6-diaza-anthracene-6-carboxylic acid tert-butyl ester]
16 | 891 nM | 73.5% | N#Cc1ccc(-c2ccc(C[C@H](NC(=O)[C@@H]3Cc4cc5c(cc4CN3C(=O)c3ccc(F)cc3)OC(c3ccc(OCc4ccc(Cl)c(Cl)c4)cc3)C(=O)N5)C(=O)O)cc2)cc1 (stereo partly drawn) [Example 22, (S)-3-(4′-Cyano-biphenyl-4-yl)-2-{[(S)-3-[4-(3,4-dichloro-benzyloxy)-phenyl]-6-(4-fluoro-benzoyl)-2-oxo-2,3,5,6,7,8-hexahydro-1H-4-oxa-1,6-diaza-anthracene-7-carbonyl]-amino}-propionic acid]
17 | 1100 nM | 14% | N#Cc1ccc(-c2ccc(C[C@H](NC(=O)[C@@H]3Cc4cc5c(cc4CN3C(=O)c3cccc4ccccc34)OC(c3ccc(OCc4ccc(Cl)c(Cl)c4)cc3)C(=O)N5)C(=O)O)cc2)cc1 (stereo partly drawn) [Example 26, (S)-3-(4′-Cyano-biphenyl-4-yl)-2-{[(S)-3-[4-(3,4-dichloro-benzyloxy)-phenyl]-6-(naphthalene-1-carbonyl)-2-oxo-2,3,5,6,7,8-hexahydro-1H-4-oxa-1,6-diaza-anthracene-7-carbonyl]-amino}-propionic acid]
18 | 1210 nM | 59% | CC(C)C(=O)N1Cc2cc3c(cc2C[C@H]1C(=O)N[C@@H](Cc1ccc(-c2ccc(C#N)cc2)cc1)C(=O)O)NC(=O)C(c1ccc(OCc2ccc(Cl)c(Cl)c2)cc1)O3 (stereo partly drawn) [Example 13, (S)-3-(4′-Cyano-biphenyl-4-yl)-2-({(S)-3-[4-(3,4-dichloro-benzyloxy)-phenyl]-6-isobutyryl-2-oxo-2,3,5,6,7,8-hexahydro-1H-4-oxa-1,6-diaza-anthracene-7-carbonyl}-amino)-propionic acid]
